Measured values taken from patent US10761085B2, “Method for determining a protein-protein interaction” (MEDICAL & BIOLOGICAL LABORATORIES CO., LTD., priority 2014, dated 2020).
One block for each compound: values may come before it.

Tests used:
[1] = system: homodimer formation of STAT3; assay: Fluorescent focus detection of STAT3 homodimer formation after IL-6, HEK293 cells constitutively expressing PB1-mAG1-STAT3 (Example 12); format: cell-based; settings: 100 ng/ml, 50 minutes; none before addition
Experimental: HEK293 cells were selected as cells into which the expression vector prepared above was introduced. The cells were first cultured in DMEM (high glucose) supplemented with 10% FBS and 1% penicillin-streptomycin. Then, on the day before the introduction of the expression vector, these cells were seeded onto a 35-mm dish, and cultured in 1.5 ml of the culture solution. […] Thereafter, the mixture solution of the expression vector was added to the cultured cells. After that, G418 was added thereto at a concentration of 500 μg/mL, and further cultured for one week. Next, viable cells were detached using a trypsin solution, diluted with a culture solution containing G418 (500 μg/ml), and then cultured in a 96-well plate at 0.5 cells/well. Subsequently, cells which formed single colonies were cultured to expand.
Then, the cells were observed using an IX-71 inverted fluorescence microscope (the magnification of the objective lens: 20×), a U-MGFPHQ filter, and an ORCA-ER digital camera. The homodimer formation of STAT3 was induced by adding Human Recombinant IL-6 (manufactured by R&D SYSTEMS, INC.) to the buffer to the final concentration of 100 ng/ml.

[2] = system: calmodulin and M13 peptide tetramer formation (H1 receptor, calcium ion); settings: 100 μM
Experimental: To express the fusion proteins in a combination of the following (A) or (B), the plasmid vectors prepared above were introduced into HeLaS3 cells by a method described below: • (A) Calumodulin-mAG1 and M13peptide-PB1; and • (B) Calumodulin-mUkG1 and M13peptide-PB1.
First, HeLaS3 cells were cultured in DMEM (low glucose) containing 10% FBS (manufactured by Equitech-Bio Inc.). Then, on the day before the transfection, the HeLaS3 cells were seeded onto a 35-mm glass base dish (manufactured by Asahi Glass Co., Ltd.). Subsequently, at the time of the transfection, the plasmids (1 μg+1 μg) were diluted with OptiMEM, and 10 μl of PolyFect(registered trademark) Transfection Reagent was added thereto and stirred. The resultant was further mixed with 600 μl of the culture solution, thereafter added to the HeLaS3 cells, and cultured for 22 hours.
Then, 100 μM histamine (manufactured by Wako Pure Chemical Industries, Ltd.) was added thereto, and fluorescence images were captured over time.

[3] = system: homodimer formation of ERK2; assay: Fluorescent focus detection of ERK2 homodimer formation after EGF, serum-starved HEK293 cells (Example 11); format: cell-based
Experimental: HEK293 cells were selected as cells into which the expression vectors prepared above were introduced. The cells were first cultured in DMEM (high glucose) supplemented with 10% FBS (manufactured by Equitech-Bio Inc.) and 1% penicillin-streptomycin. Then, on the day before the introduction of the expression vectors, these cells were seeded onto a 35-mm dish, and cultured in 1.5 ml of the culture solution. […] Thereafter, each solution of the expression vectors was added to the cultured cells. The pERK2-hmAG1PB1 transfected cells were observed 20 hours after the vector introduction. To the pERK2-PB1-hmAG1 transfected cells, G418 was added at a concentration of 500 μg/mL, and further cultured for one week. After that, viable cells were detached using a trypsin solution, diluted with a culture solution containing G418 (500 μg/ml), and then cultured in a 96-well plate at 0.5 cells/well. Subsequently, cells which formed single colonies were cultured to expand.
Then, the cells were observed using an IX-71 inverted fluorescence microscope (the magnification of the objective lens: 20×), a U-MGFPHQ filter, and an ORCA-ER digital camera. The homodimer formation of ERK2 was induced by adding EGF (epidermal growth factor, manufactured by Sigma-Aldrich Co.) to the buffer to the final concentration of 50 ng/ml. FIGS. 26 and 27 show images before the EGF addition and 8 minutes after the addition.

[4] = molecular target: T1, FKBP12 mutant homodimer formation (Homo sapiens, UniProt P62942, F37V); assay: Fluorescent focus detection of FKBP12 mutant homodimer formation, PB1-mAG1-FKBP12 mutant transiently expressed in HEK293 cells (Example 1); format: cell-based; settings: 500 nM
T1 construct: expressed in transfected cells; host or cells: HEK293
Experimental: Next, the pPB1-hmAG1-FKBP12 mutant prepared as described above was introduced into HEK293 cells, and the fusion protein according to the present invention was expressed in the cells. Specifically, first, HEK293 cells were cultured in DMEM (high glucose, manufactured by SIGMA ALDRICH CO.) supplemented with 10% FBS (manufactured by Equitech-Bio Inc.) and 1% penicillin-streptomycin (manufactured by Life Technologies Corporation). Then, on the day before the transfection, the HEK293 cells cultured in this manner were seeded onto an 8-well chamber slide (manufactured by Nunc A/S), and cultured in 200 μL of the culture solution per well. Subsequently, 100 ng of the pPB1-hmAG1-FKBP12 mutant was diluted with 10 μL of OptiMEM (manufactured by Life Technologies Corporation), and 0.4 μL of Turbofect Transfection Reagent (manufactured by Thermo Fisher Scientific Inc.) was added thereto and then stirred. Thereafter, the resultant was further mixed with 100 μL of the culture solution, then added to the HEK293 cells, and cultured for 20 hours.
After the transfection treatment, the HEK293 cells were observed using an IX-71 inverted fluorescence microscope (manufactured by Olympus Corporation, the magnification of the objective lens: 20×), a U-MGFPHQ filter (manufactured by Olympus Corporation), and an ORCA-ER digital camera (manufactured by Hamamatsu Photonics K. K.). […]
Target sequence in this assay (P62942 whole entry F37V): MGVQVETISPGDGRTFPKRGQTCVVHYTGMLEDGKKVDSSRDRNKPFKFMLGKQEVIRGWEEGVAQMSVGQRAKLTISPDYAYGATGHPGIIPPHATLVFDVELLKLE

[5] = molecular target: T1, FKBP12 mutant homodimer formation; assay: FKBP12 mutant homodimer formation with SAM domain of Tankyrase 1 as multimerizable protein, HEK293 cells (Example 9); format: cell-based; settings: 500 nM, 3 hours, room temperature; Tankyrase-mAG1-FKBP12 mutant
Experimental: HEK293 cells were cultured in DMEM (high glucose) supplemented with 10% FBS and 1% penicillin-streptomycin. Then, on the day before the transfection, the cells were seeded onto an 8-well chamber slide. The cells were cultured in 200 μL of the culture solution per well. Subsequently, a DNA solution was prepared by mixing 200 ng of the plasmid with 10 μL of OptiMEM, and 0.8 μl of Fugene HD (manufactured by Promega Corporation) was added thereto and then stirred. The resultant was further mixed with 100 μl of the culture solution, then added to the HEK293 cells, and cultured for 20 hours.
After the transfection treatment, the HEK293 cells were observed using an IX-81 inverted microscope and an ORCA-Flash 4.0 digital camera. A U-MNIBA3 filter was used for the observation. The homodimer formation of the FKBP12 mutant was induced by adding 500 nM B/B Homodimerizer to the medium. In addition, after the drug was added, the resultant was left standing at room temperature. The cells were observed after 3 hours elapsed.
Target sequence in this assay (P62942 2-108 F37V limits assumed): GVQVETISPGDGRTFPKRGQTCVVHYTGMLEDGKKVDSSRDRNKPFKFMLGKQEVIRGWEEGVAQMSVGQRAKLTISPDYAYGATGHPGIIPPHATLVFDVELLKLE

[6] = molecular target: T1, FKBP12 mutant homodimer formation; assay: FKBP12 mutant homodimer formation with DG1 or mCherry as fluorescent protein, HEK293 cells (Example 8); format: cell-based; settings: 500 nM, 1, 2 and 3 hours, room temperature; PB1-DG1-FKBP12 mutant and PB1-mCherry-FKBP12 mutant
Source text: To express the PB1-hDG1-FKBP12 mutant or the PB1-mCherry-FKBP12 mutant in cells, the vectors encoding these fusion proteins were introduced into HEK293 cells by the same method as that described in Example 4.
After the transfection treatment, the HEK293 cells were observed using an IX-81 inverted microscope and an ORCA-Flash 4.0 digital camera. A U-MNIBA3 filter (manufactured by Olympus Corporation) and a U-MWIG3 filter (manufactured by Olympus Corporation) were used respectively for the DG1 and mCherry observations. The homodimer formation of the FKBP12 mutant was induced by adding 500 nM B/B Homodimerizer. After the drug addition, the resultant was left standing at room temperature. The cells were observed after 1, 2, and 3 hours elapsed. FIGS. 22 and 23 show images before the drug addition and 1, 2, and 3 hours after the addition.
Target sequence in this assay (P62942 2-108 F37V limits assumed): as above

[7] = molecular target: T1, FKBP12 mutant homodimer formation; assay: Comparative Example 1: method of PTL 4 (PB1-FKBP12 mutant and AG-FKBP12 mutant) for FKBP12 mutant homodimer formation in HEK293 cells; format: cell-based; settings: method of PTL 4, 66 minutes after the drug addition
Experimental: In the detection system described in PTL 4, the PB1 domain of the p62 protein was selected as the association-inducing protein. Moreover, AG was selected as the fluorescent multimerizable protein, and a DNA encoding humanized-codon AG (hAG) was used.
Further, an expression vector (pPB1-FKBP12 mutant) encoding a fusion protein composed of the FKBP12 mutant fused to the C-terminus of the PB1 domain of the p62 protein was prepared as follows. Specifically, a DNA having the nucleotide sequence of SEQ ID NO: 31 was artificially synthesized which contained restriction enzyme sites at either end of a DNA having a nucleotide sequence encoding the FKBP12 mutant (the DNA encoding a protein having the amino acid sequence of SEQ ID NO: 32). Then, the obtained synthetic DNA was cleaved with EcoRI and XhoI, and inserted into pAsh-MCLinker (manufactured by MEDICAL & BIOLOGICAL LABORATORIES CO., LTD.) having been treated with a combination of the same restriction enzymes. Thus, a pPB1-FKBP12 mutant was constructed. […]
Further, 100 ng of each of the expression vectors thus constructed was mixed, that is, 200 ng of these were mixed in total, and fluorescent foci in cells before and after the drug addition were detected according to the same methods as <Cell Culturing and Transfection> and <Observation of Cells> described in Example 1.
Target sequence in this assay (P62942 2-108 F37V limits assumed): as above

[8] = molecular target: T1, FKBP12 mutant homodimer formation; assay: Reversible FKBP12 mutant homodimer formation in HEK293 cells constitutively expressing PB1-hmAG1-FKBP12 mutant, spot detection image analysis (Example 2); format: cell-based
Experimental: The pPB1-hmAG1-FKBP12 mutant was introduced into HEK293 cells, and cells constitutively expressing the fusion protein according to the present invention (PB1-hmAG1-FKBP12 mutant) were prepared. Specifically, on the day before the introduction of the expression vector, HEK293 cells were seeded onto a 35-mm dish (manufactured by BD Falcon), and cultured in 1.5 mL of the culture solution. Then, 1 μg of the pPB1-hmAG1-FKBP12 mutant was diluted with 100 μL of OptiMEM (manufactured by Life Technologies Corporation), and 10 μL of PolyFect (registered trademark) Transfection Reagent (manufactured by QIAGEN N.V.) was added thereto and then stirred. […] Thereafter, G418 was added thereto at a concentration of 500 μg/mL, and further cultured for one week. After that, viable cells were detached using a trypsin solution, diluted with a culture solution containing G418 (500 μg/ml), and then cultured in a 96-well plate at 0.5 cells/well. […]
The images captured over time by the above method were analyzed using spot detection (spot detector) of an icy image analysis program (icy.bioimageanalysis.org/). Moreover, from the images, a graph was created in which the X axis represents the operation time (minutes), and the Y axis represents a numerical value of a total fluorescence intensity in regions of the fluorescent foci within boxes drawn around the regions by lines.
Target sequence in this assay (P62942 whole entry F37V): as the sequence (P62942 whole entry F37V) above

Compound: IL-6: Human Recombinant IL-6, manufactured by R&D SYSTEMS, INC.
fluorescent focus formation [1]: fluorescent foci were observed in multiple cells

fluorescent focus formation ([2]; 60 seconds after the ligand was added, Calmodulin-mAG1 or Calmodulin-mUkG1 with M13peptide-PB1): fluorescent focus formation was detected
Compound: NCCc1c[nH]cn1 [histamine]
extinction of fluorescent foci ([2]; 300 seconds after the ligand addition (FIG. 35)): the fluorescent foci (assemblies) were extinguished

Compound: EGF: epidermal growth factor, manufactured by Sigma-Aldrich Co. (NSDSECPLSHDGYCLHDGVCMYIEALDKYACNCVVGYIGERCQYRDLKWWELR; UniProt P01133 971-1023, looked up)
fluorescent focus formation ([3]; 50 ng/ml, 8 minutes, ERK2-mAG1-PB1 transient, none before addition): fluorescent foci were observed in multiple cells
fluorescent focus formation ([3]; 8 minutes after EGF addition, cells constitutively expressing ERK2-PB1-hmAG1 (FIG. 27)): fluorescent foci indicating the homodimer formation of ERK2 were detected

fluorescence intensity relative to that before the addition ([8]; when formation of fluorescent foci started to be observed immediately after the B/B Homodimerizer addition): 1.9 times
Compound: CC[C@H](C(=O)N1CCCC[C@H]1C(=O)O[C@H](CCc1ccc(OC)c(OC)c1)c1cccc(OCC(=O)NCC(CNC(=O)COc2cccc([C@@H](CCc3ccc(OC)c(OC)c3)OC(=O)[C@@H]3CCCCN3C(=O)[C@@H](CC)c3cc(OC)c(OC)c(OC)c3)c2)CN(C)C)c1)c1cc(OC)c(OC)c(OC)c1 [B/B Homodimerizer]
fluorescent focus formation ([4]; 38 minutes after the drug addition, none before addition): fluorescent foci were observed in multiple cells
fluorescent focus formation ([4]; 76 minutes after the addition): many cells which exhibited distinctive fluorescent foci were observed
fluorescent focus formation [5]: fluorescent focus formations attributable to the addition of the drug
fluorescent focus formation [6]: drug-addition dependent increases in fluorescent foci were observed
fluorescent focus formation [7]: fluorescent foci were formed only in a few cells
fluorescent focus formation ([8]; 500 nM, 90 minutes after the B/B Homodimerizer addition): distinctive fluorescent foci were observed in multiple cells
